Measurements from patent US9302999B2, “Substituted triazoles as herbicides” (E. I. DU PONT DE NEMOURS AND COMPANY, priority 2012, dated 2016).
Like-named read-outs stand apart in the source and are kept apart here.

Legend:
Assay type in all cases: in vivo
[1] = tested on: sedge, umbrella (small-flower umbrella sedge, Cyperus difformis); test: Test C flooded paddy test: sedge, umbrella; conditions: scale 0 to 100 (0 no effect, 100 complete control); for pest or weed control at 62 g/ha / pest or weed control at 250 g/ha / pest or weed control at 125 g/ha: Cyperus difformis, read-out: Plant response rating, Sedge, Umbrella
Procedure, shortened: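 Plants were grown to the 2-leaf stage, pots flooded to 3 cm above soil, and test compounds applied directly to the paddy water, with that depth held throughout. After 13 to 15 days in a greenhouse, injury was visually rated against controls on a 0 (no effect) to 100 (complete control) scale.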

[2] = tested on: barley, spring (spring barley, Hordeum vulgare); test: Test D pre-/postemergence: barley, spring
Excerpt: Seeds of plant species selected from bluegrass (annual bluegrass, Poa annua), blackgrass (Alopecurus myosuroides), canarygrass (Phalaris minor), chickweed (common chickweed, Stellaria media), galium (catchweed bedstraw, Galium aparine), bromegrass, downy (downy bromegrass, Bromus tectorum), field poppy (Papaver rhoeas), field violet (Viola arvensis), foxtail, green (green foxtail, Setaria viridis), deadnettle (henbit deadnettle, Lamium amplexicaule), ryegrass, Italian (Italian ryegrass, Lolium multiflorum), kochia (Kochia scoparia), lambsquarters (Chenopodium album), oilseed rape (Brassica napus), pigweed (Amaranthus retroflexus), Russian thistle (Salsola iberica), chamomile (scentless chamomile, Matricaria inodora), speedwell (bird's-eye speedwell, Veronica persica), barley, spring (spring barley, Hordeum vulgare), wheat, spring (spring wheat, Triticum aestivum), buckwheat, wild (wild buckwheat, Polygonum convolvulus), mustard, wild (wild mustard, Sinapis arvensis), oat, wild (wild oat, Avena fatua), radish, wild (wild radish, Raphanus raphanistrum), windgrass (Apera spica-venti), barley, winter (winter barley, Hordeum vulgare), and wheat, winter (winter wheat, Triticum aestivum) were planted into a silt loam soil and treated preemergence with test chemicals formulated in a non-phytotoxic solvent mixture which included a surfactant. At the same time, these same crop and weed species were planted in pots containing the planting medium comprising spaghnum peat moss, vermiculite, wetting agent and starter nutrients and treated with postemergence applications of the test chemicals formulated in the same manner. Plants ranged in height from 2 to 18 cm (1- to 4-leaf stage).
Treated plants and controls were maintained in a controlled growth environment for 14 to 21 days after which time all species were compared to controls and visually evaluated. Plant response ratings, summarized in Table D, are based on a scale of 0 to 100 where 0 is no effect and 100 is complete control. A dash (-) response means no test result.

[3] = tested on: pigweed, palmer (palmer pigweed, Amaranthus palmeri); test: Test F pre-/postemergence: pigweed, palmer; conditions: Postemergence, scale 0 to 100
Excerpt: Seeds of plant species selected from corn (Zea mays), soybean (Glycine max), velvetleaf (Abutilon theophrasti), lambsquarters (Chenopodium album), poinsettia, wild (wild poinsettia, Euphorbia heterophylla), pigweed, palmer (palmer pigweed, Amaranthus palmeri), waterhemp (common waterhemp, Amaranthus rudis), surinam grass (Brachiaria decumbens), crabgrass, Brazil (Brazilian crabgrass, Digitaria horizontalis), panicum, fall (fall panicum Panicum dichotomiflorum), crabgrass, large (large crabgrass, Digitaria sanguinalis), foxtail, giant (giant foxtail, Setaria faberii), foxtail, green (green foxtail Setaria viridis), goosegrass (Eleusine indica), ragweed (common ragweed, Ambrosia elatior), barnyardgrass (Echinochloa crus-galli), sandbur (southern sandbur, Cenchrus echinatus), arrowleaf sida (Sida rhombifolia), ryegrass, Italian (Italian ryegrass, Lolium multiflorum), dayflower, VA (Virginia (VA) dayflower, Commelina virginica), field bindweed (Convolvulus arvensis), cocklebur (common cocklebur, Xanthium strumarium), morningglory (Ipomoea coccinea), nightshade (eastern black nightshade, Solanum ptycanthum), kochia (Kochia scoparia), nutsedge, yellow (yellow nutsedge, Cyperus esculentus), johnsongrass (Sorghum halepense), smartweed (ladysthumb smartweed, Polygonum persicaria), and beggarticks (hairy beggarticks, Bidens pilosa), were planted into a silt loam soil and treated preemergence with test chemicals formulated in a non-phytotoxic solvent mixture which included a surfactant. At the same time, plants selected from these crop and weed species and also pigweed (Amaranthus retroflexus), waterhemp_RES1 (ALS/Triazine resistant common waterhemp, Amaranthus rudis) and waterhemp_RES2 (ALS/HPPD resistant common waterhemp, Amaranthus rudis) were planted in pots containing a planting medium comprising spaghnum peat moss, vermiculite, wetting agent and starter nutrients treated with postemergence applications of some of the test chemicals formulated in the same manner. Plants ranged in height from 2 to 18 cm for postemergence treatments (1- to 4-leaf stage).
Treated plants and controls were maintained in a greenhouse for 14 to 21 days, after which time all species were compared to controls and visually evaluated. Plant response ratings, summarized in Table E, are based on a scale of 0 to 100 where 0 is no effect and 100 is complete control. A dash (-) response means no test result.

[4] = Flood (flooded paddy test), 62 g ai/ha, visual rating after 13 to 15 days
[5] = Flood (flooded paddy test), 250 g ai/ha, visual rating after 13 to 15 days
[6] = Postemergence, 31 g ai/ha, scale 0 to 100 (0 no effect, 100 complete control)
[7] = Postemergence, 62 g ai/ha, scale 0 to 100 (0 no effect, 100 complete control)
[8] = Postemergence, 125 g ai/ha, scale 0 to 100, 0 no effect, 100 complete control
[9] = Postemergence, 250 g ai/ha, scale 0 to 100 (0 no effect, 100 complete control)
[10] = Preemergence, 31 g ai/ha, scale 0 to 100, 0 no effect, 100 complete control
[11] = Preemergence, 62 g ai/ha, scale 0 to 100
[12] = Preemergence, 125 g ai/ha, scale 0 to 100
[13] = Preemergence, 250 g ai/ha, scale 0 to 100
[14] = Postemergence, 16 g ai/ha, scale 0 to 100
[15] = Flood (flooded paddy test), 125 g ai/ha, visual rating after 13 to 15 days

SMILES	pest or weed control at 62 g/ha [1, 4]	pest or weed control at 250 g/ha [1, 5]	Plant response rating: Barley, Spring [2, 6]	Plant response rating: Barley, Spring [2, 7]	Plant response rating: Barley, Spring [2, 8]	Plant response rating: Barley, Spring [2, 9]	Plant response rating, Barley, Spring [2, 10]	Plant response rating, Barley, Spring [2, 11]	Plant response rating, Barley, Spring [2, 12]	Plant response rating, Barley, Spring [2, 13]	Plant response rating, Barley, Spring [2, 14]	Plant response rating, Sedge, Umbrella [1, 15]	Plant response rating, Sedge, Umbrella [1, 5]	other results
Cc1nn(-c2ccc(C(F)(F)F)cc2)nc1Oc1csc(C(F)(F)F)c1 [Compound 1, 4-methyl-2-[4-(trifluoromethyl)phenyl]-5-[[5-(trifluoromethyl)-3-thienyl]oxy]-2H-1,2,3-triazole]	0%	0%												
FC(F)(F)COc1nn(-c2ccc(C(F)(F)F)cc2)nc1Cc1ccnc(C(F)(F)F)c1 [Compound 14, 4-[[5-(2,2,2-trifluoroethoxy)-2-[4-(trifluoromethyl)phenyl]-2H-1,2,3-triazol-4-yl]methyl]-2-(trifluoromethyl)pyridine]	40%	75%	25	25	30	40	0	10	15	20				
COc1nn(-c2ccc(C(F)(F)F)cc2)nc1Cc1ccnc(C(F)(F)F)c1 [Compound 15, 4-[[5-methoxy-2-[4-(trifluoromethyl)phenyl]-2H-1,2,3-triazol-4-yl]methyl]-2-(trifluoromethyl)pyridine]	75%	80%	15	25	30	40	0	0	10	15	10			
Cc1nn(-c2ccc(C(F)(F)F)cn2)nc1Oc1ccnc(C(F)(F)F)c1 [Compound 23]			0	10	10	15					0	80	90	Plant response rating, Sedge, Umbrella [1, 4]: 75; Plant response rating, Sedge, Umbrella ([1]; Flood, 31 g ai/ha): 60
Cc1nn(-c2ccc(C(F)(F)F)cn2)nc1Cc1cccc(C(F)(F)F)c1 [Compound 106]			10	15	20	30	0	0	0	0	5	75	80	Plant response rating, Sedge, Umbrella ([1]; Flood, 31 g ai/ha): 50; Plant response rating, Sedge, Umbrella ([1]; Flood, 62 g ai/ha): 50
COCc1nn(-c2ccc(C(F)(F)F)cc2)nc1Oc1cccc(OC(F)(F)F)c1 [Compound 115, 4-(methoxymethyl)-5-[3-(trifluoromethoxy)phenoxy]-2-[4-(trifluoromethyl)phenyl]-2H-1,2,3-triazole]		80%												pest or weed control at 125 g/ha [1, 15]: 75%; pest or weed control at 62 g/ha ([1]; Flood, 62 g ai/ha): 70%
FCc1nn(-c2ccc(C(F)(F)F)cc2)nc1Oc1cccc(OC(F)(F)F)c1 [Compound 116, 4-(fluoromethyl)-5-[3-(trifluoromethoxy)phenoxy]-2-[4-(trifluoromethyl)phenyl]-2H-1,2,3-triazole]		85%												pest or weed control at 125 g/ha [1, 15]: 75%; pest or weed control at 62 g/ha ([1]; Flood, 62 g ai/ha): 60%
Cc1nn(-c2ccc(C(F)(F)F)cc2)nc1Oc1ccnc(C(F)(F)F)c1 [Compound 120]			10	15	15	30	0	5	10	20	5	90	90	Plant response rating, Sedge, Umbrella ([1]; Flood, 62 g ai/ha): 85; Plant response rating, Barley, Spring ([2]; Preemergence, 16 g ai/ha, scale 0 to 100, 0 no effect, 100 complete control): 0
COc1nn(-c2ccc(C(F)(F)F)cc2)nc1Cc1ccnc(C(F)F)c1 [Compound 138]			20	25	35	40					10			
Cc1nn(-c2ccnc(Cl)c2)nc1Cc1ccnc(C(F)(F)F)c1 [Compound 141]														Plant response rating, Pigweed, Palmer ([3]; 8 g ai/ha): 95; Plant response rating, Pigweed, Palmer ([3]; 16 g ai/ha): 95; Plant response rating, Pigweed, Palmer ([3]; 31 g ai/ha): 95; Plant response rating, Pigweed, Palmer ([3]; 62 g ai/ha): 100; Plant response rating, Pigweed, Palmer ([3]; 125 g ai/ha): 100
